Test results: patent publication US6541191B2, “Photographic processing solutions” (Eastman Kodak Company, priority 1996, dated 2003)
Where “and” joins values, the source holds several entries; their conditions need not be identical. Identical values can stand only once. Like-named read-outs stand apart in the source and are kept apart here.

What was measured:
Type in all cases: physicochemical
[1] = Solubility of processing compounds (stated in the description)
[2] = Keeping test of continuously aerated developers with limited-solubility antioxidants, analysed for CD3 content (Example 2); details: about 0.029 molar antioxidant added, developer pH 10.05; rest solid swirling in solution
Protocol: The compounds CSD and MCH were compared with diethyl hydroxylamine at equimolar levels in a developer of the composition shown in Table 2.
The antioxidant level was equivalent to 3.0 ml/l diethyl hydroxylamine (85%); which is about 0.029 molar. The three developers were as follows;
These developers were placed in 500 ml measuring cylinders and stirred continuously with magnetic stirrers to create a vortex depth of about 5 mm in each case in order to ensure continuous aeration.

[3] = Equilibrium level of MCH in circulated potassium carbonate solution on dilution or evaporation (Example 1); details: potassium carbonate pH 10.5
Protocol: A circulation system of about 500 ml capacity was set up in which solid N-monocyclohexyl hydroxylamine (MCH) was retained behind a removable filter paper filter. The solution circulated was potassium carbonate at pH=10.5. The solution was left to circulate for 30 minutes and the amount of MCH in solution was determined by removing the paper filter that retained the MCH, drying and weighing it. […] The volume was increased by increments of 10%. In a second part of the experiment most of the solution was removed from the system and evaporated to reduce its volume, again in increments of 10%. Solid MCH came out of solution and was collected on the filter and weighed as before.

SMILES: CCCNc1nc(NO)nc(NO)n1 [CSD, 4,5-dihydroxylamino-2-propylamino-1,3,5-triazine]
- solubility [1]: 500 µg/mL to 1000 µg/mL and ~5000 µM

SMILES: CCN(O)CC [Diethyl hydroxylamine, reference compound]
- solubility in water [1]: essentially miscible in all proportions with water
- share of the antioxidant in solution in the developer [2]: completely in solution

SMILES: ONC1CCCCC1 [MCH, Mono-N-cyclohexylhydroxylamine]
- solubility ([1]; aqueous buffer, at developer pH (10.0)): 3900 µg/mL to 4000 µg/mL and ~26000 µM
- time for the MCH level to adjust itself to the initial level after dilution or evaporation [3]: ≤ 30 min
- MCH in Solution ([3]; volume 70 % relative to initial (evaporation)): 4.03 g/L
- MCH in Solution ([3]; volume 80 % relative to initial (evaporation)): 3.92 g/L
- MCH in Solution ([3]; volume 90 % relative to initial (evaporation)): 3.88 g/L
- MCH in Solution ([3]; volume 100 % relative to initial, 30 minutes): 3.80 g/1
- MCH in Solution ([3]; volume 110 % relative to initial, 30 minutes): 3.81 g/L
- MCH in Solution ([3]; volume 120 % relative to initial, 30 minutes): 3.87 g/L
- MCH in Solution ([3]; volume 130 % relative to initial, 30 minutes): 4.11 g/L
- MCH in Solution ([3]; volume 140 % relative to initial, 30 minutes): 4.05 g/L
- MCH in Solution ([3]; volume 150 % relative to initial, 30 minutes): 3.96 g/L
- share of the antioxidant in solution in the developer [2]: About 90%

SMILES: ON(Cc1ccccc1)Cc1ccccc1 [dibenzyl-hydroxylamine, reference compound]
- solubility in water [1]: almost entirely insoluble in water

SMILES: CC(C)(C)NO [mono-t-butyl-hydroxylamine, reference compound]
- solubility in water [1]: too soluble
